SMILES strings stand for the structures. Non-standard residues stand in square brackets, D forms with d. Residues, ends and D or L forms follow the SMILES beside them. pGlu = O=C1CC[C@@H](C(=O)O)N1

Type in all cases: cell-based
In assay [1] the target is apTKRPR-B T391 (Aplysia californica, UniProt A0AAU7STS1, DEL392-447). Nature of the assay: IP1 accumulation assay, C-terminal truncate apTKRPR-B T391. The method, then:
To express putative Aplysia receptors transiently in CHO-K1 cells, the cDNAs were subcloned into the pcDNA3.1(+) or pcDNA3.1(+)-FLAG (for ELISA experiments only, see “Cell surface expression analysis by ELISA” section) expression vector. On the day before transfection, the CHO-K1 cells were passaged into 60 mm diameter tissue culture–treated dishes, and the transfection experiments were performed when the cells were grown to 70 to 90% confluence. CHO-K1 cells were transfected with the cDNA plasmid constructs using Turbofect Transfection reagent (Thermo Fisher Scientific, R0531), following the manufacturer’s instructions. In brief, 4 μg of the putative receptor plasmids [in pcDNA3.1(+) or pcDNA3.1(+)-FLAG] were mixed with 400 μl of Opti-MEM (Gibco, 11058021), followed by the addition of 15 μl of TurboFect Transfection reagent and incubated at room temperature for 15 min. […]
The next day, transfected cells were trypsinized and reseeded in an opaque white 96-well half-area (Corning, 3688) or 384-well tissue culture–treated plates (Corning, 3570) at a density of 20,000 cells/well in F-12K and 10% FBS and incubated at 37 °C in a humidified incubator containing 5% CO2 overnight. On the third day, the activation of the putative receptors was detected by monitoring intracellular IP1 concentration using an IP-One Gq kit (Cisbio, 62IPAPEB) in Tecan Spark. […]

In assay [2] the target is T1, apTKRPR-B (Aplysia californica, UniProt A0AAU7STS1).
T1 sequence (A0AAU7STS1 1-447): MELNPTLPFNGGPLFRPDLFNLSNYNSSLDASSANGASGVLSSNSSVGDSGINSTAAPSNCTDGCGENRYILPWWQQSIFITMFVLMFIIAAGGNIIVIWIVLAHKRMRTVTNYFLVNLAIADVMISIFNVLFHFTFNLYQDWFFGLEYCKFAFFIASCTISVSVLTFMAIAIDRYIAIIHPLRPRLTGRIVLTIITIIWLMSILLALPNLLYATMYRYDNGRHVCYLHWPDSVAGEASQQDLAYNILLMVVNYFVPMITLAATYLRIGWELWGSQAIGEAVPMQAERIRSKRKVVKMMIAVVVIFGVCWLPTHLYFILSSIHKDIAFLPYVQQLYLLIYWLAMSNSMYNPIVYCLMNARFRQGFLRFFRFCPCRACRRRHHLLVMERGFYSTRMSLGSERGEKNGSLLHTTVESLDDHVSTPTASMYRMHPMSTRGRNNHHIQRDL
The experiment in a line: Receptor desensitization assay, protocol 1 (prolonged agonist exposure), apTKRPR-B. Conditions: 10 μM, 2, 5, 10, 15, 30 and 60 min at 37 °C; fold increase over basal; n = 3. The method, then:
(§1) Therefore, we adopted two protocols to study the desensitization of apTKRPRs. The protocols were performed using a procedure modified from previous work ([87], [88], [89]).
Protocol 1 ([87], [88]): Under continuous (prolonged) stimulation with an agonist, we examined agonist-induced desensitization by quantifying the rate of IP1 accumulation. Specifically, CHO-K1 cells transiently expressing pcDNA3.1-apTKRPRs were incubated in the absence or presence of 10 μM (saturating concentration) apTKRP-2b for the different duration (2, 5, 10, 15, 30, and 60 min) at 37 °C, and intracellular concentrations of IP1 accumulation were measured. Data are presented as fold increase over basal IP1 concentration (Fig. S10).

Assay [3] concerns the target T2, apTKRPR-A (Aplysia californica, UniProt A0AAU7SSZ1).
T2 sequence (A0AAU7SSZ1 1-398): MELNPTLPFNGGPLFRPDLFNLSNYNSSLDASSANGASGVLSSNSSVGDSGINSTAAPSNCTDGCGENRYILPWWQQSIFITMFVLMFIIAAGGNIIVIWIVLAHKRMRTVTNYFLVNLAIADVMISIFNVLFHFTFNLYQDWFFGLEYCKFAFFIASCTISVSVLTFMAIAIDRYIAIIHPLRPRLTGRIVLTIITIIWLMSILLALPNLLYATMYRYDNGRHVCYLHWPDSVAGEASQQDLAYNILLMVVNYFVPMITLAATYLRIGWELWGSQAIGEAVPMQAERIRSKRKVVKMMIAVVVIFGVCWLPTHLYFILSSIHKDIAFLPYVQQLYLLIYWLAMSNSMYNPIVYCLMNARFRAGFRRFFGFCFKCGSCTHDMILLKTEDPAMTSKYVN
Nature of the assay: Receptor desensitization assay, protocol 2 (repeated agonist exposure), apTKRPR-A. The conditions noted are these: 10 μM pretreatment 2-60 min without LiCl, wash, second 10 μM application for 15 min with LiCl; % of control; n = 5. The method, then: as §1
Protocol 2 ([89]): To simulate repeated stimulation with an agonist, we examined agonist-induced desensitization by quantifying the accumulation level of IP1 after two applications of the agonist/ligand. Because the IP1 accumulation assay involves using LiCl to stop the degradation of IP1, in this protocol, LiCl was applied only during the second application of the agonist. Specifically, to elicit desensitization, cells were first exposed to 10 μM apTKRP-2b in the absence of LiCl for various pretreatment durations (pretreatment stage/phase Ⅰ). After this agonist exposure, cells were washed (three times) rapidly with PBS (phase Ⅱ), and the wash was consistently performed in each experiment. Responsiveness of the receptor was then assessed by measuring intracellular concentrations of IP1 accumulation in response to a second application of 10 μM apTKRP-2b for 15 min in the presence of LiCl (phase Ⅲ) (Fig. S11).

`CC(C)C[C@H](NC(=O)[C@H](Cc1c[nH]cn1)NC(=O)[C@@H]1CCCN1C(=O)[C@@H]1CCC(=O)N1)C(=O)NCC(=O)N[C@@H](Cc1ccccc1)C(=O)N[C@@H](Cc1c[nH]cn1)C(=O)NCC(=O)N[C@@H](CO)C(=O)N[C@@H](CCCNC(=N)N)C(N)=O` [apTKRP-2b] ([pGlu]PHLGFHGSR-NH2) showed a 50% effective concentration (EC50) in assay [1] of 21.4 nM. In assay [2], the “time course of IP1 accumulation, apTKRPR-B (protocol 1)” value was “initially increased and then reached a plateau”. For the same compound, the “IP1 accumulation after pretreatment, apTKRPR-A (protocol 2)” value in assay [3] was “IP1 accumulation was less after the second exposure”.

The values are drawn from paper PMC11365428 (The Journal of Biological Chemistry, 2024).
